For one test, the system named is rat. Put plainly: apomorphine stereotypy test / stereotypy in the rat. It counts as in vivo. The settings on record: 30 mg/kg i.p. The method, then:
The compounds moreover induce stereotypy in the rat at a dose of about 30 mg/kg i.p.
and has a score. in the apomorphine stereotypy test of 15.7 at 30 mg/kg i.p .

In the next test the test system is rat brain. Nature of the test: carbon-14-2-deoxyglucose autoradiographic technique, local cerebral glucose utilisation. The class given is in vivo. The settings on record: 3 mg/kg i.p. The method, then:
Moreover the compounds increase the local cerebral glucose utilisation in the sensomotor cartex, e.g. Hippocampus, Nucleus habenula, Nucleus corpus gentcul . As indicated by the carbon-14-2-deoxyglucose autoradiographic technique with the rat brain on administration i.p. of from about 0.3 to about 30 mg/kg of the compounds [for method see e.g. L. Solokoff, Journal of Cerebral Blood Flow and Metabolism, 1981, (1), 7-36, H. E. Savaki et al. Brain Research 1982, 233, 347 and J. McCulloch et al. Journal of Cerebral Blood Flow and Metabolism 1981, 1, 133-136.

For “2-methyl-9,10-dihydro-9'-thia-α-ergocryptine”, the “score in the apomorphine stereotypy test” value with rat was found to be 15.7. In addition, in the test with rat brain (Hippocampus), the “increase in local cerebral glucose utilisation, Hippocampus” value is on record as “+2%”. The “increase in local cerebral glucose utilisation, Nucleus dors.corpus genicul.lat” value with rat brain (Nucleus dors.corpus genicul.lat) was “+25%”. Further, the “increase in local cerebral glucose utilisation, Nucleus lateralis huberula” value in the test with rat brain (Nucleus lateralis huberula) is listed as “+22%”.

For the origin of these results see patent publication US4804660A, “Ergot cyclic peptide alkaloids having a venotonizing effect, useful for treating orthostatic hypotension” (Sandoz Ltd., priority 1981, dated 1989).
